Test results published in US20080234233A1, “MEDICAMENT FOR TREATMENT OF NEURODEGENERATIVE DISEASES” (INSTITUTE OF MEDICINAL MOLECULAR DESIGN INC., priority 2002, published 2008).

Tested on: NF-κ B activation
Experiment: Inhibitory activity of NF-κB activation, luciferase reporter assay under TNF-α stimulation in HepG2
Format: cell-based, human
Conditions: HepG2, TNF-α 40 ng/ml, 4 hours; for inhibition at 1 µg/mL / inhibition at 10 µg/mL: Homo sapiens, read-out: Inhibitory rate against NF-κB activation (%)
Experimental: Measurement of Inhibitory Activity of NF-κB activation
Using a transfection reagent (Effectene; QIAGEN), the human hepatoma cell strain HepG2 was transfected with a plasmid (pNF κ B-Luc Reporter Plasmid; […]) integrated with an oligonucleotide having five tandem copies of NF-κ B binding sequences([…]) on a upstream region of firefly luciferase gene(Luc) according to the QIAGEN's protocol, and the cells were incubated for 6 to 24 hours. After addition of TNF-α (40 ng/ml) in the presence or absence of a test compound, the cells were incubated for 4 hours, and intracellular luciferase activity was measured by using PicaGene LT (TOYO INK MFG Co., Ltd.) and a chemical luminescence measurement apparatus ([…]luor Plus; TECAN). The inhibitory ratio was measured as a ratio relative to the value of the luciferase activity in the absence of the test compound.

Row | Inhibitory rate against NF-κB activation (%) (Drug concentration at 1 μg/mL) | Inhibitory rate against NF-κB activation (%) (Drug concentration at 10 μg/mL) | Structure (SMILES) | inhibition at 1 µg/mL (Drug concentration at 1 μg/mL) [%] | inhibition at 10 µg/mL (Drug concentration at 10 μg/mL) [%]
1 | 85.3 | 90.2 | O=C(Nc1cc(Cl)cc(Cl)c1)c1c(O)ccc2ccccc12 [compound 182] |  | 
2 |  |  | O=C(Nc1nc(-c2ccc(Cl)c(Cl)c2)cs1)c1cc(Cl)ccc1O [compound 260, 5-Chloro-2-hydroxy-N-[4-(3,4-dichlorophenyl)thiazol-2-yl]benzamide] | > 99.9 | 
3 | 94.1 | 96.4 | Cc1ccc(C(=O)C(C)(C)C)cc1NC(=O)c1cc(Cl)ccc1O [compound 166] |  | 
4 | 93.7 | 96.4 | Cc1ccc(-c2ccccc2)cc1NC(=O)c1cc(Cl)ccc1O [compound 172] |  | 
5 | 59.7 | 98.5 | N#CC(=Cc1ccc(O)c(C(=O)Nc2cc(C(F)(F)F)cc(C(F)(F)F)c2)c1)C(=O)O [compound 18] |  | 
6 |  |  | CCOC(=O)c1sc(NC(=O)c2cc(Br)ccc2O)nc1-c1c(F)c(F)c(F)c(F)c1F [compound 219, Ethyl 2-(5-bromo-2-hydroxybenzoyl)amino-4-(pentafluorophenyl)thiazole-5-carboxylate] | 82.2 | 96
7 |  |  | CC(=O)Oc1ccccc1C(=O)Nc1cc(C(F)(F)F)cc(C(F)(F)F)c1 [compound 1, 2-acetoxy-N-[3,5-bis(trifluoromethyl)phenyl]benzamide] | 90.9 | 97.1
8 | 69.6 | 96.5 | COc1ccc(C)c(NC(=O)c2cc(Cl)ccc2O)c1 [compound 160] |  | 
9 |  |  | CC(C)c1cccc(C(=O)Nc2cc(C(F)(F)F)cc(C(F)(F)F)c2)c1O [compound 256, N-[3,5-bis(trifluoromethyl)phenyl]-2-hydroxy-3-isopropylbenzamide] | 92.1 | 
10 | 49.6 | 91.3 | CC(C)NC(=O)c1sc(NC(=O)c2cc(Br)ccc2O)nc1-c1ccccc1 [compound 222] |  | 
11 |  |  | CC(C)(C)c1cc(NC(=O)c2cc(Cl)ccc2O)cc(C(C)(C)C)c1 [compound 138, N-{3,5-bis[(1,1-dimethyl)ethyl]phenyl}-5-chloro-2-hydroxybenzamide] | 89.6 | 98.1
12 | 31.8 | 90.3 | CCOC(=O)c1sc(NC(=O)c2cc(-c3ccc(F)cc3F)ccc2O)nc1-c1ccccc1 [compound 227] |  | 
13 |  |  | COC(=O)c1cc(NC(=O)c2cc(Cl)ccc2O)cc(C(F)(F)F)c1 [compound 108, 5-chloro-2-hydroxy-N-[3-methoxycarbonyl-5-(trifluoromethyl)phenyl]benzamide] | 41.5 | 88.4
14 | 94.0 | 96.8 | CC(=O)Oc1ccc(Cl)cc1C(=O)Nc1cc(C(F)(F)F)ccc1C(F)(F)F [compound 82] |  | 
15 | 45.0 | 85.8 | CCOC(=O)c1sc(NC(=O)c2cc(-c3ccc(F)cc3)ccc2O)nc1-c1ccccc1 [compound 226] |  | 
16 | 96.5 | 99.2 | CC(=O)Oc1ccc(Cl)cc1C(=O)Nc1cc(C(F)(F)F)cc(C(F)(F)F)c1 [compound 5] |  | 
17 |  |  | Cc1nc(-c2ccc(O)c(C(=O)Nc3cc(C(F)(F)F)cc(C(F)(F)F)c3)c2)cs1 [compound 30, N-[3,5-Bis(trifluoromethyl)phenyl]-2-hydroxy-5-(2-methylthiazol-4-yl)benzamide] | 82.1 | 95.3
18 | 80.7 | 94.2 | CCOC(=O)c1sc(NC(=O)c2cc(Br)ccc2O)nc1-c1ccccc1 [compound 218] |  | 
19 |  |  | O=C(Nc1nc(-c2cc(F)ccc2F)cs1)c1cc(Cl)ccc1O [compound 263, 5-Chloro-2-hydroxy-N-[4-(2,5-difluorophenyl)thiazol-2-yl]benzamide] | > 99.9 | 
20 |  |  | O=C(Nc1cc(C(F)(F)F)cc(C(F)(F)F)c1)c1cc([N+](=O)[O-])ccc1O [compound 8, N-[3,5-bis(trifluoromethyl)phenyl]-2-hydroxy-5-nitrobenzamide] | 92 | 99.2
21 |  |  | CC(C)c1nc(NC(=O)c2cc(Br)ccc2O)sc1-c1ccccc1 [compound 197, 5-Bromo-N-(4-isopropyl-5-phenylthiazol-2-yl)-2-hydroxybenzamide] | 70.1 | 96.1
22 |  |  | CC(C)(C)c1nc(NC(=O)c2cc(Cl)ccc2O)sc1C#N [compound 188, 5-Chloro-N-{5-cyano-4-[(1,1-dimethyl)ethyl]thiazol-2-yl}-2-hydroxybenzamide] | 92.6 | 92.4
23 |  |  | COc1ccc(-c2csc(NC(=O)c3cc(Cl)ccc3O)n2)cc1 [compound 264, 5-Chloro-2-hydroxy-N-[4-(4-methoxyphenyl)thiazol-2-yl]benzamide] | > 99.9 | 
24 | 79.5 | 97.8 | O=C(Nc1cc(C(F)(F)F)cc(C(F)(F)F)c1)c1cc(-c2cccs2)ccc1O [compound 28] |  | 
25 |  | 86.8 | COc1ccc(OC)c(NC(=O)c2cc3ccccc3cc2O)c1 [compound 183] |  | 
26 | 97.6 | 98.3 | CCC(C)(C)c1ccc(Oc2ccccc2)c(NC(=O)c2cc(Cl)ccc2O)c1 [compound 164] |  | 

Row | Structure (SMILES) | Inhibitory rate against NF-κB activation (%) (Drug concentration at 1 μg/mL) | Inhibitory rate against NF-κB activation (%) (Drug concentration at 10 μg/mL) | inhibition at 1 µg/mL (Drug concentration at 1 μg/mL) [%] | inhibition at 10 µg/mL (Drug concentration at 10 μg/mL) [%]
27 | O=C(Nc1cc(C(F)(F)F)ccc1C(F)(F)F)c1cc(Br)ccc1O [compound 83] | 95.7 | 98.3 |  | 
28 | O=C(Nc1cc(C(F)(F)F)cc(C(F)(F)F)c1)c1cc(N=Nc2ccc([N+](=O)[O-])cc2)ccc1O [compound 48] | 96.2 | 98.7 |  | 
29 | O=C(Nc1cc(C(F)(F)F)cc(C(F)(F)F)c1)c1cc2ccccc2cc1O [compound 72] | 94.6 | 95.0 |  | 
30 | Cc1ccc(C(F)(F)F)cc1NC(=O)c1cc(Cl)ccc1O [compound 92] | 93.8 | 97.9 |  | 
31 | O=C(Nc1cc(C(F)(F)F)ccc1Oc1ccc2ccccc2c1)c1cc(Cl)ccc1O [compound 110] | 96.5 | 98.7 |  | 
32 | O=C(Nc1cc(C(F)(F)F)ccc1F)c1cc(Cl)ccc1O [compound 87] | 93.1 | 95.9 |  | 
33 | COc1cccc(C(=O)Nc2cc(C(F)(F)F)cc(C(F)(F)F)c2)c1O [compound 59] | 41.9 | 94.7 |  | 
34 | O=C(Nc1cc(C(F)(F)F)cc(C(F)(F)F)c1)c1cccc(Cl)c1O [compound 64] | 84.9 | 94.1 |  | 
35 | Cc1ccc(O)c(C(=O)Nc2cc(C(F)(F)F)ccc2C)c1 [compound 102] | 89.3 | 98.3 |  | 
36 | Cc1cc(Oc2ccc(C(F)(F)F)cc2NC(=O)c2cc(Cl)ccc2O)cc(C)c1Cl [compound 115] | 90.7 | 98.4 |  | 
